Data published in PubChem BioAssay AID2060619 (Molecular Pharmacology Branch, DTP, NCI, 2025).

System: 323965-272-R-J2-PDC complex spheroid viability
Test: Anticancer human tumor 323965-272-R-J2-PDC patient-derived pancreatic carcinoma cell line growth inhibition [CLK]
Conditions: for IC50: curve of first compound; for viability, T/C: stronger effect = lower value
In short: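 Multi-cell-type spheroids combined patient-derived tumor cells with HUVEC endothelial cells and human mesenchymal stem cells. Paired agents were dosed in half-log steps down from about clinical Cmax, or from 10 microM where Cmax was unknown.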

[1] = second compound 0.0316 µM, first compound 0.0316 µM
[2] = second compound 0.0316 µM, first compound 0.1 µM
[3] = second compound 0.0316 µM, first compound 0.316 µM
[4] = second compound 0.0316 µM, first compound 1 µM
[5] = second compound 0.0316 µM, first compound 3.16 µM
[6] = second compound 0.0316 µM, first compound 10 µM
[7] = second compound 0.1 µM, first compound 0.0316 µM
[8] = second compound 0.1 µM, first compound 0.1 µM
[9] = second compound 0.1 µM, first compound 0.316 µM
[10] = second compound 0.1 µM, first compound 1 µM
[11] = second compound 0.1 µM, first compound 3.16 µM
[12] = second compound 0.1 µM, first compound 10 µM
[13] = second compound 0.316 µM, first compound 0.0316 µM
[14] = second compound 0.316 µM, first compound 0.1 µM
[15] = second compound 0.316 µM, first compound 0.316 µM
[16] = second compound 0.316 µM, first compound 1 µM
[17] = second compound 0.316 µM, first compound 3.16 µM
[18] = second compound 0.316 µM, first compound 10 µM
[19] = second compound 1 µM, first compound 0.0316 µM
[20] = second compound 1 µM, first compound 0.1 µM
[21] = second compound 1 µM, first compound 0.316 µM
[22] = second compound 1 µM, first compound 1 µM
[23] = second compound 1 µM, first compound 3.16 µM
[24] = second compound 1 µM, first compound 10 µM
[25] = second compound 3.16 µM, first compound 0.0316 µM
[26] = second compound 3.16 µM, first compound 0.1 µM
[27] = second compound 3.16 µM, first compound 0.316 µM
[28] = second compound 3.16 µM, first compound 1 µM
[29] = second compound 3.16 µM, first compound 3.16 µM
[30] = second compound 3.16 µM, first compound 10 µM
[31] = second compound 10 µM, first compound 0.0316 µM
[32] = second compound 10 µM, first compound 0.1 µM
[33] = second compound 10 µM, first compound 0.316 µM
[34] = second compound 10 µM, first compound 1 µM
[35] = second compound 10 µM, first compound 3.16 µM
[36] = second compound 10 µM, first compound 10 µM
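Further: spheroids exposed to agents for seven days before readout.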
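Wherever viability, T/C is given: percent of DMSO vehicle control wells so 100% = untreated growth.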

Work on `CC1(C)CCC(CN2CCN(c3ccc(C(=O)NS(=O)(=O)c4ccc(NCC5CCOCC5)c([N+](=O)[O-])c4)c(Oc4cnc5[nH]ccc5c4)c3)CC2)=C(c2ccc(Cl)cc2)C1` + CNC(=O)c1ccc(Nc2nc(OC3CCCC3)c3c(-c4ccc5nc(C)oc5c4)c[nH]c3n2)c(OC)c1 yielded an IC50 (second compound 0.0316 µM) of 5550 nM, an IC50 (second compound 0.1 µM) of 4210 nM and an IC50 (second compound 0.316 µM) of 2300 nM. For the same compound, the IC50 (second compound 1 µM) was less than 31.6 nM, the IC50 (second compound 3.16 µM) was less than 31.6 nM and the IC50 (second compound 10 µM) was less than 31.6 nM. For the same compound, the viability, T/C [1] was 102%, the viability, T/C [2] was 93.4% and the viability, T/C [3] was 98.7%. For the same compound, the viability, T/C [4] was 93%, the viability, T/C [5] was 89.9% and the viability, T/C [6] was 8.02%. It also gave a viability, T/C [7] of 87.4%, a viability, T/C [8] of 94.4% and a viability, T/C [9] of 78.8%. It also gave a viability, T/C [10] of 80.2%, a viability, T/C [11] of 65.6% and a viability, T/C [12] of 7.13%. It also gave a viability, T/C [13] of 67.7%, a viability, T/C [14] of 69% and a viability, T/C [15] of 64.7%. The viability, T/C [16] was 58.7%, the viability, T/C [17] was 47.3% and the viability, T/C [18] was 7.29%. For the same compound, the viability, T/C [19] was 44.1%, the viability, T/C [20] was 45.9% and the viability, T/C [21] was 45.2%. For the same compound, the viability, T/C [22] was 42%, the viability, T/C [23] was 36.1% and the viability, T/C [24] was 7.06%. The viability, T/C [25] was 39.5%, the viability, T/C [26] was 41.8% and the viability, T/C [27] was 43.5%. It also gave a viability, T/C [28] of 36.1%, a viability, T/C [29] of 37% and a viability, T/C [30] of 7.39%. The viability, T/C [31] was 36.7%, the viability, T/C [32] was 36.2% and the viability, T/C [33] was 41.5%. For the same compound, the viability, T/C [34] was 33.7%, the viability, T/C [35] was 32.6% and the viability, T/C [36] was 8.69%.
Work on `C=CC(=O)N1CCN(c2nc(=O)n(-c3c(C)ccnc3C(C)C)c3nc(-c4c(O)cccc4F)c(F)cc23)C(C)C1` (stereo unspecified) + CN1CCN(c2cc(C(=O)Nc3cc4cc(-c5cnn(C)c5)ccc4cn3)ccn2)CC1 yielded an IC50 (second compound 0.0316 µM) greater than 10000 nM, an IC50 (second compound 0.1 µM) of less than 31.6 nM and an IC50 (second compound 0.316 µM) of less than 31.6 nM. The IC50 (second compound 1 µM) was less than 31.6 nM, the IC50 (second compound 3.16 µM) was less than 31.6 nM and the IC50 (second compound 10 µM) was less than 31.6 nM. The viability, T/C [1] was 63%, the viability, T/C [2] was 64.3% and the viability, T/C [3] was 55%. The viability, T/C [4] was 63.9%, the viability, T/C [5] was 60.1% and the viability, T/C [6] was 67.9%. It also gave a viability, T/C [7] of 51.3%, a viability, T/C [8] of 45.8% and a viability, T/C [9] of 39.8%. For the same compound, the viability, T/C [10] was 57.4%, the viability, T/C [11] was 51.5% and the viability, T/C [12] was 46.6%. For the same compound, the viability, T/C [13] was 17.9%, the viability, T/C [14] was 17.9% and the viability, T/C [15] was 16%. The viability, T/C [16] was 18.2%, the viability, T/C [17] was 17.4% and the viability, T/C [18] was 22.6%. It also gave a viability, T/C [19] of 2.53%, a viability, T/C [20] of 3.03% and a viability, T/C [21] of 3.22%. The viability, T/C [22] was 3.64%, the viability, T/C [23] was 5.21% and the viability, T/C [24] was 5.85%. It also gave a viability, T/C [25] of 2.77%, a viability, T/C [26] of 2.98% and a viability, T/C [27] of 3.49%. It also gave a viability, T/C [28] of 3.29%, a viability, T/C [29] of 5.91% and a viability, T/C [30] of 5.6%. The viability, T/C [31] was 3.45%, the viability, T/C [32] was 3.36% and the viability, T/C [33] was 3.83%. For the same compound, the viability, T/C [34] was 3.24%, the viability, T/C [35] was 4.22% and the viability, T/C [36] was 4.53%.
With `COc1c(OCCCN2CCOCC2)ccc2c3n(c(=NC(=O)c4cnc(N)nc4)nc12)CCN3` + CN1CCN(c2cc(C(=O)Nc3cc4cc(-c5cnn(C)c5)ccc4cn3)ccn2)CC1 the IC50 (second compound 0.0316 µM) was 40.1 nM, the IC50 (second compound 0.1 µM) was 18.7 nM and the IC50 (second compound 0.316 µM) was less than 3.16 nM. The IC50 (second compound 1 µM) was less than 3.16 nM, the IC50 (second compound 3.16 µM) was less than 3.16 nM and the IC50 (second compound 10 µM) was less than 3.16 nM. The viability, T/C (second compound 0.0316 µM, first compound 0.00316 µM) was 85.5%, the viability, T/C (second compound 0.0316 µM, first compound 0.01 µM) was 77.1% and the viability, T/C [1] was 50%. It also gave a viability, T/C [2] of 39.6%, a viability, T/C [3] of 28.8% and a viability, T/C [4] of 25.9%. It also gave a viability, T/C (second compound 0.1 µM, first compound 0.00316 µM) of 64.5%, a viability, T/C (second compound 0.1 µM, first compound 0.01 µM) of 63% and a viability, T/C [7] of 39.3%. For the same compound, the viability, T/C [8] was 26%, the viability, T/C [9] was 21.4% and the viability, T/C [10] was 19.3%. The viability, T/C (second compound 0.316 µM, first compound 0.00316 µM) was 23.6%, the viability, T/C (second compound 0.316 µM, first compound 0.01 µM) was 21.5% and the viability, T/C [13] was 15.9%. The viability, T/C [14] was 15.7%, the viability, T/C [15] was 12.2% and the viability, T/C [16] was 11.9%. For the same compound, the viability, T/C (second compound 1 µM, first compound 0.00316 µM) was 3.49%, the viability, T/C (second compound 1 µM, first compound 0.01 µM) was 2.87% and the viability, T/C [19] was 2.38%. For the same compound, the viability, T/C [20] was 2.22%, the viability, T/C [21] was 1.51% and the viability, T/C [22] was 0.92%. The viability, T/C (second compound 3.16 µM, first compound 0.00316 µM) was 3.25%, the viability, T/C (second compound 3.16 µM, first compound 0.01 µM) was 4.48% and the viability, T/C [25] was 3.03%. For the same compound, the viability, T/C [26] was 1.39%, the viability, T/C [27] was 1.26% and the viability, T/C [28] was 0.84%. The viability, T/C (second compound 10 µM, first compound 0.00316 µM) was 4.13%, the viability, T/C (second compound 10 µM, first compound 0.01 µM) was 3.87% and the viability, T/C [31] was 3.7%. It also gave a viability, T/C [32] of 2.13%, a viability, T/C [33] of 1.69% and a viability, T/C [34] of 2.03%.
